Patent US20080176828A1, “Treating melanoma with BIS(THIOHYDRAZIDE AMIDES)” (priority 2006, published 2008)
Several values for one entry are separate records, joined by “and”; a condition that tells them apart may be missing. Equal values may be shown once. Read-outs that look alike come from different tables or passages of the source.

Key:
[1] = test system: Stage IV metastatic melanoma
Protocol: Example 1, weekly treatment regimen of compound (1) and paclitaxel combined in Stage IV metastatic melanoma patients in comparison with paclitaxel alone, based on time to progression
The dosages administered were 213 mg/m^2 compound (1), 80 mg/m^2 paclitaxel, and the dosage regimen was 3 weekly doses per each 4 week cycle. Patients were treated until progression of the disease. […] The tumor assessments were performed at baseline, Cycle 2, and every other Cycle thereafter.

melanoma = details: currently used melanoma treatments, cited from earlier work
[2] = Kaplan-Meier estimate, efficacy sample, Stage IV melanoma patients, 3 weekly doses per 4 week cycle
[3] = RECIST, efficacy sample, number of patients (% of group)
[4] = own trial arms as listed in Tables 3 and 4

In the case of CC(=O)O[C@H]1C(=O)[C@@]2(C)[C@H]([C@H](OC(=O)c3ccccc3)[C@]3(O)C[C@H](OC(=O)[C@H](O)[C@@H](NC(=O)c4ccccc4)c4ccccc4)C(C)=C1C3(C)C)[C@]1(OC(C)=O)CO[C@@H]1C[C@@H]2O [Paclitaxel], the “Time to Progression, 75th percentile (95% CI)” value [1, 2] is reported as 106.0 (61.0, 218.0) days, the “Time to Progression, Median (95% CI)” value [1, 2] is reported as 56.0 (49.0, 105.0) days and the “Best Overall Response: Complete Response (CR)” value [1, 3] is reported as 0. For the same compound, the “Best Overall Response: Partial Response (PR)” value [1, 3] was 1 (3.7%), the “Best Overall Response: Progressive Disease (PD)” value [1, 3] was 16 (59.3%) and the “CR + PR (95% CI)” value ([1]; RECIST, efficacy sample, two-sided Fisher's exact test p-value 0.149) was 3.7% (0.1%, 19.0%). The “patients with stable disease” value ([1]; Table 2) was 37%, the CR [1, 4] was 0% and the OR [1, 4] was 3.7%. The PR [1, 4] was 3.7%, the TTP [1, 4] was 57 days and the OR (melanoma; listed as Paclitaxel (Taxol)) was 12% and 17.8%.
In the case of CNC(=O)c1cc(Oc2ccc(NC(=O)Nc3ccc(Cl)c(C(F)(F)F)c3)cc2)ccn1 [Sorafenib], the PR (melanoma) is given as 2.6%.
In the case of CC/C(=C(\c1ccccc1)c1ccc(OCCN(C)C)cc1)c1ccccc1 [Tamoxifen], the CR (melanoma) is listed as 1%, the OR (melanoma) is listed as 4.9% and the PR (melanoma) is listed as 3.9%.
For CCOP(=O)(OCC)C(C)NC(=O)N(CCCl)N=O (stereo not shown) [Fotemustine], the OR (melanoma) is listed as 15.2%, the Survival (melanoma) is listed as 7.3 months and the TTP (melanoma) is listed as 55 days.
